Experimental findings from patent US20260306460A1, “COMPOSITION FOR REMOVING AND INHIBITING SENESCENT CELLS, AND USES THEREOF” (LIFECEUTIX CO., LTD., priority 2023, published 2026) are described below.

In data set [1] the test system is HMGN1 secreted from senescent A549 cells. In words: HMGN1 secretion (ELISA) from senescent A549 cancer cells, Example 12.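 Note: A549 cells made senescent by doxorubicin exposure, with DMSO-treated cells serving as the non-senescent control.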 The class given is cell-based, human. The following applies: senescent untreated = 100%; 30 μM; 90 μM for LX-305, 905, 1302, 1601, 1603, 2003, 2702, 2901, 3106; 270 μM for LX-1103, 2005, 2007. For orientation: An ELISA detects its analyte on a solid surface through an enzyme-linked reagent.
Experimental: Cells were treated with doxorubicin or control (DMSO) and cultured.

For data set [2], the system named is senescent foreskin cells. Put plainly: Survival of senescent human cells treated with supernatant (secreted fluid) from death-induced cells, Example 13. The class given is cell-based. Conditions: Table 8; supernatant from dying senescent cells treated at 30, 90 or 270 μM (as Example 11); senescent treated cells.
Experimental: After 3 days, cell viability was measured using CellTiter-Glo Luminescent Cell Viability Assay (Promega) or light microscopy.
During this additional culture, by checking with an optical microscope, etc., the medium supernatants containing secreted fluid from normally proliferating and senescent cells in which cell death was induced were obtained. The obtained medium supernatant was replaced with the medium of normally proliferating and senescent cells, respectively, and cell survival rate was measured after 3 days.
Data set [3] deals with naturally aged C57BL6J mice. In words: Skin aging (dermal thickness, COL1A1 and SDF1 mRNA, hair loss) in naturally aged mice, Example 21-10, Table 25. It counts as in vivo, mouse. Conditions: for Dermal Thickness (μm): mouse, in vivo; for Relative area of hair loss (%) / Col1a1 mRNA (Fold) / SDF1 mRNA (fold): naturally aged mice; for Relative area of hair loss (%): untreated aged = 100; for Col1a1 mRNA (Fold) / SDF1 mRNA (fold): skin, untreated aged = 1. The protocol:
(§1) 22-month-old female C57BL6J mice (KRIBB Laboratory Animal Resource Center) were acclimated to the experimental environment for one week, after which the aged mice were randomly assigned to experimental and control groups. Eight-week-old, non-aged mice served as controls. LX-403 was mixed in a 10% ethanol solution of PEG400 and administered orally at a concentration of 25 mg/kg daily for 21 days, or administered to the skin, joints, or eyes at a concentration of 1 μM. LX-1801 was mixed in distilled water with 4% DMSO, 30% PEG300, and 5% Tween80 and administered to the skin, joints, or eyes at a concentration of 0.4 μM daily for 21 days. LX-2001 was mixed in PBS and administered to the skin, joints, or eyes at a concentration of […] daily for 21 days. LX-2002 was mixed in distilled water with 4% DMSO, 30% PEG300, and 5% Tween80 and administered to the skin, joints, or eyes at a concentration of 2 μM daily for 21 days. […] LX-2005 was mixed in distilled water with 4% DMSO, 30% PEG300, and 5% Tween80 and administered to the skin, joints, or eyes at a concentration of 90 μM daily for 21 days. LX-2007 was mixed in distilled water with 4% DMSO, 30% PEG300, and 5% Tween80 and administered to the skin, joints, or eyes at a concentration of 90 μM daily for 21 days. […] LX-3002 was mixed in distilled water with 4% DMSO, 30% PEG300, and 5% Tween80 and administered orally at a concentration of 10 mg/kg daily for 21 days. […] LX-5411 was mixed in 5% PBS and administered orally at a concentration of 10 mg/kg daily for 21 days or administered to the skin, joints, or eyes at a concentration of 3 μM. LX-5701 was mixed in PBS and administered orally at a concentration of 360 mg/kg daily for 21 days. LX-6807 was mixed in saline and administered intraperitoneally at a concentration of 1 mg/kg daily for 21 days. LX-2101 or LX-2102 was mixed in PBS solution with 5% DMSO and administered intraperitoneally at a concentration of 20 mg/kg or 10 mg/kg, respectively, daily for 21 days. The control group received only the solution in the same volume. After the end of drug administration, the methods described in each example below were performed.
Frozen sections of skin tissue were stained with Hematoxylin/Eosin (H/E), and the dermal thickness was observed under an optical microscope. Furthermore, the mRNA levels of collagen (COL1A1), a skin component, and SDF1, which suppresses age-related pigmentation, were measured using qRT-PCR as described in Example 7-2 of WO2023-085787 A1. […] Furthermore, biweekly examinations were performed to assess the onset of hair loss due to aging.

For data set [4], the system named is naturally aged C57BL6J mice. It counts as in vivo, mouse. The following applies: after 7 days; 6 mm punch dorsal skin wounds; naturally aged mice; untreated aged 3.2 (±0.4).
Data set [5] concerns naturally aged C57BL6J mice. In words: Cataract incidence in naturally aged mice, Example 21-15, Table 30. It counts as in vivo, mouse. Conditions: orally twice a week, 360 mg/kg, until death, untreated aged 83. As to the method:
as §1
Cataracts, which occur with age, are a disease that causes visual impairment due to clouding of the lens and are a major cause of blindness. The mice of Example 21-1 were treated with the test compound mixed in PBS orally twice a week at a concentration of 360 mg/kg. Cataract development was assessed biweekly until death.

The subject of data set [6] is bleomycin-induced scleroderma C57BL6J mice. Put plainly: Bleomycin scleroderma in mice (p16, COL1A1 mRNA, dermal thickness), Example 24-2, Table 48. It counts as in vivo, mouse. The following applies: daily for 21 days; for p16 mRNA: untreated 100 (±8.8); for Col1a1 mRNA: untreated 100 (±13.2); for Dermal Thickness: untreated 459 (±38.7). As to the method: Eight-week-old male C57BL6J mice (KRIBB Laboratory Animal Resource Center) were acclimated to the experimental environment for one week. Then, 100 μl of the anticancer drug bleomyxin (1 mg/ml) was administered subcutaneously every other day to induce scleroderma for more than three weeks. Mice with scleroderma were randomly assigned to experimental and control groups. LX-403 was mixed with a 10% ethanol solution of PEG400 and administered orally at a concentration of 25 mg/kg daily for 21 days or administered directly to the skin at a concentration of 1 μM. LX-1801 was mixed with a solution of 4% DMSO, 30% PEG300, and 5% Tween80 in distilled water and administered subcutaneously at a concentration of 0.4 μM daily for 21 days. LX-2001 was mixed in PBS and administered intradermally at a concentration of 2 μM daily for 21 days. LX-2002 was mixed in distilled water with 4% DMSO, 30% PEG300, and 5% Tween80 and administered intradermally at a concentration of 2 μM daily for 21 days. […] LX-2005 was mixed in distilled water with 4% DMSO, 30% PEG300, and 5% Tween80 and administered intradermally at a concentration of 90 μM daily for 21 days. LX-2007 was mixed in distilled water with 4% DMSO, 30% PEG300, and 5% Tween80 and administered intradermally at a concentration of 90 μM daily for 21 days. […] LX-3002 was mixed with distilled water with 4% DMSO, 30% PEG300, 5% tween80 and administered orally at 10 mg/kg daily for 21 days. […] LX-5411 was mixed with 5% PBS and administered orally at 10 mg/kg daily for 21 days or subcutaneously at 3 μM. LX-5701 was mixed with PBS and administered orally at 360 mg/kg daily for 21 days. LX-6807 was mixed in saline and administered intraperitoneally at a concentration of 1 mg/kg daily for 21 days. The control group was administered only the solution in the same volume. After the end of drug administration, mice were sacrificed in the same manner as in Example 7-2 of WO2023-085787 A1, RNA was extracted from skin tissue, and the synthesized cDNA was used to perform and analyze the mRNA amounts of p16 and collagen (COL1A1) by qRT-PCR (quantitative real-time PCR). In addition, to measure the degree of bleomycin-induced skin hardening, skin frozen sections were stained with H/E (Hematoxylin/Eosin), and the thickness of the dermis was observed under an optical microscope.

For data set [7], the system named is NaIO3-induced retinal degenerative C57BL6J mice. In words: NaIO3 retinal degeneration in mice (p16 mRNA, outer nuclear layer thickness), Example 29, Table 53. It counts as in vivo, mouse. Conditions: daily for 21 days; for Outer nuclear layer thickness: untreated 27.4 (±1.3); for p16 mRNA: untreated 100%.
Experimental: Then, retinal degenerative diseases were induced for more than 7 days by intravenous administration of 20 mg/kg of NaIO3, an oxidizing agent that induces retinal pigment epithelial cell death and retinal degeneration. Mice with retinal degenerative diseases were randomly assigned to experimental and control groups. […] The control group received only the solution in the same volume. […] In addition, frozen sections of the other eye tissue were stained with H/E (Hematoxylin/Eosin), and the thickness of the outer nuclear layer (ORL) was observed under an optical microscope. […] The mRNA amount after aging induction was calculated as 100% and compared with the mRNA amount of p16 after treatment with the test compound.

In data set [1], `C[C@H]1[C@H](C)CC[C@]2(C(=O)O)CC[C@]3(C)C(=CC[C@@H]4[C@@]5(C)C[C@@H](O)[C@H](O)C(C)(C)[C@@H]5CC[C@]43C)[C@H]12` [LX-2002, Corosolic acid] displayed an HMGN1 of 314%. The same compound gave a Survival in data set [2] of 58.3. Moreover, in data set [3], the “Dermal Thickness (μm)” value is listed as 253 (±40.1) μm, the “Relative area of hair loss (%)” value was 75 (±8.3) %, the “Col1a1 mRNA (Fold)” value is 1.9 (±0.3) Fold and the “SDF1 mRNA (fold)” value is listed as 1.4 (±0.1) fold. In addition, the “Wound size (mm)” value in data set [4] is on record as 2.7 (±0.4) mm. The “Cataract incidence (%)” value in data set [5] turned out to be 71%. In data set [6], the “p16 mRNA” value was 51.3 (±2.6) %, the “Col1a1 mRNA” value is listed as 71.2 (±4.2) % and the “Dermal Thickness” value was 427 (±60.1) μm. Also, in data set [7], the “Outer nuclear layer thickness” value was 30.1 (±7.8) μm and the “p16 mRNA” value is listed as 60 (±3.8) %.
Take `C[C@H]1[C@H](C)CC[C@]2(C(=O)O)CC[C@]3(C)C(=CC[C@@H]4[C@@]5(C)CC[C@H](O)C(C)(C)[C@@H]5CC[C@]43C)[C@H]12` [LX-2001, Ursolic acid]: the HMGN1 in data set [1] amounted to 328%. This compound showed a Survival in data set [2] of 57.8. Besides, in data set [3], the “Dermal Thickness (μm)” value is listed as 241 (±46.6) μm, the “Relative area of hair loss (%)” value is on record as 73 (±8.3) %, the “Col1a1 mRNA (Fold)” value was 2.2 (±0.4) Fold and the “SDF1 mRNA (fold)” value is 1.6 (±0.2) fold. For the same compound, the “Wound size (mm)” value in data set [4] is 2.5 (±0.5) mm. Further, in data set [5], the “Cataract incidence (%)” value worked out at 75%. Moreover, in data set [6], the “p16 mRNA” value is given as 64.2 (±4.4) %, the “Col1a1 mRNA” value is 62.8 (±5.6) % and the “Dermal Thickness” value is 394 (±78.4) μm. In data set [7], the “Outer nuclear layer thickness” value was 34.1 (±5.1) μm and the “p16 mRNA” value is given as 61 (±4.1) %.
Compound `CC1(C)CC[C@]2(C(=O)O)CC[C@]3(C)C(=CC[C@@H]4[C@@]5(C)CC[C@H](O)C(C)(C)[C@@H]5CC[C@]43C)[C@@H]2C1` [LX-2003, Oleanolic acid] showed an HMGN1 in data set [1] of 218%. This compound also showed a Survival in data set [2] of 64.2. For the same compound, in data set [3], the “Dermal Thickness (μm)” value was 235 (±56.3) μm, the “Relative area of hair loss (%)” value is recorded as 71 (±2.2) %, the “Col1a1 mRNA (Fold)” value was 2.3 (±0.4) Fold and the “SDF1 mRNA (fold)” value is 1.7 (±0.1) fold. Moreover, the “Wound size (mm)” value in data set [4] was 2.6 (±0.6) mm. The “Cataract incidence (%)” value in data set [5] stood at 69%. In addition, in data set [6], the “p16 mRNA” value is 72.4 (±5.8) %, the “Col1a1 mRNA” value was 73.8 (±3.5) % and the “Dermal Thickness” value is recorded as 411 (±81.3) μm. In data set [7], the “Outer nuclear layer thickness” value is on record as 31.2 (±8.7) μm and the “p16 mRNA” value was 52 (±6.3) %.
Compound `C=C(C)[C@@H]1CC[C@]2(C(=O)O)CC[C@]3(C)[C@H](CC[C@@H]4[C@@]5(C)CC[C@H](O)C(C)(C)[C@@H]5CC[C@]43C)[C@@H]12` [LX-2005, Betulinic acid] came in with an HMGN1 in data set [1] of 252%. In addition, in data set [2], the Survival is 91.6. Besides, in data set [3], the “Dermal Thickness (μm)” value is recorded as 227 (±28.4) μm, the “Relative area of hair loss (%)” value is 80 (±4.9) %, the “Col1a1 mRNA (Fold)” value is given as 1.7 (±0.2) Fold and the “SDF1 mRNA (fold)” value was 1.9 (±0.2) fold. Moreover, in data set [4], the “Wound size (mm)” value is listed as 2.9 (±0.3) mm. The “Cataract incidence (%)” value in data set [5] amounted to 72%. Also, in data set [6], the “p16 mRNA” value is reported as 62.8 (±4.6) %, the “Col1a1 mRNA” value is on record as 68.2 (±2.4) % and the “Dermal Thickness” value is on record as 432 (±61.7) μm. In addition, in data set [7], the “Outer nuclear layer thickness” value was 30.9 (±3.8) μm and the “p16 mRNA” value is recorded as 71 (±4.9) %.
Regarding `CC1(C)C=C2[C@H]3CC[C@@H]4[C@@]5(C)CCC(=O)C(C)(C)[C@@H]5CC[C@@]4(C)[C@]3(C)CC[C@@]2(C(=O)O)CC1` [LX-2007, Moronic acid], the HMGN1 in data set [1] was 192%. Further, the Survival in data set [2] is on record as 95.7. Further, in data set [3], the “Dermal Thickness (μm)” value is reported as 219 (±31.1) μm, the “Relative area of hair loss (%)” value is recorded as 86 (±5.5) %, the “Col1a1 mRNA (Fold)” value is reported as 1.6 (±0.3) Fold and the “SDF1 mRNA (fold)” value is on record as 1.3 (±0.2) fold. In data set [4], the “Wound size (mm)” value is given as 3.0 (±0.2) mm. For the same compound, in data set [5], the “Cataract incidence (%)” value amounted to 80%. In data set [6], the “p16 mRNA” value is 75.1 (±3.5) %, the “Col1a1 mRNA” value is recorded as 80.5 (±4.0) % and the “Dermal Thickness” value is reported as 421 (±83.6) μm. In data set [7], the “Outer nuclear layer thickness” value is 29.4 (±7.5) μm and the “p16 mRNA” value is 75 (±5.9) %.
Compound Tocofersolan [LX-3001] came in with an HMGN1 in data set [1] of 261%. The Survival in data set [2] is given as 58.7. Also, the “Dermal Thickness (μm)” value in data set [3] is 223 (±15.7) μm. Further, the “Wound size (mm)” value in data set [4] is listed as 2.4 (±0.1) mm. The “Cataract incidence (%)” value in data set [5] turned out to be 73%. Besides, in data set [6], the “p16 mRNA” value is listed as 76.1 (±5.5) %, the “Col1a1 mRNA” value is given as 81.4 (±2.5) % and the “Dermal Thickness” value was 421 (±28.4) μm. In data set [7], the “Outer nuclear layer thickness” value is recorded as 34.1 (±2.1) μm and the “p16 mRNA” value is reported as 80 (±2.5) %.
